This note sets out measurements from patent US8017612B2, “Piperazine compound and use thereof as a HCV polymerase inhibitor” (priority 2006, dated 2011).

As a reminder, the IC50 is the concentration at which inhibition is half-maximal. Read a high IC50 as weaker potency in that assay.

Assay [1] addresses T1, HCV polymerase (NS5B) type 1b (Hepatitis C virus genotype 1b, UniProt P26663).
T1 construct: a region encoding NS5B (J Virol 1991 March, 65(3), 1105-13, 544 amino acids after deletion of 47 amino acids on the C-terminal); 6xHis (C); made in house; host or cells: Escherichia coli
Put plainly: Assay of enzyme (HCV polymerase) inhibitory activity, type 1b enzyme. The assay is classed as biochemical, HCV BK strain (type 1b). Conditions: HCV polymerase inhibitory activity IC50, 1b, type 1b enzyme. An outline of the steps: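 IC50 derived from [3H]UTP incorporation into TCA-insoluble RNA, compared with and without test compound. Reaction (25 °C, 60 min, Tris pH 7.5, 5 mM MgCl2): E. coli-expressed 1b NS5B Δ47 with His tag at 0.5 μg/ml, 5 μg/ml run-off substrate RNA, ATP/GTP/CTP 50 μM, UTP 2 μM.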

In assay [2] the target is T2, HCV polymerase (NS5B) type 1a (Hepatitis C virus genotype 1a, UniProt P26664).
T2 construct: made in house; host or cells: Escherichia coli (by the 'similar method' of the 1b enzyme)
Put plainly: Assay of enzyme (HCV polymerase) inhibitory activity, type 1a enzyme. The assay is classed as biochemical, HCV type 1a (cloned from the blood of patients). Conditions: HCV polymerase inhibitory activity IC50, 1a, type 1a enzyme. An outline of the steps: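 Reactions ran 60 min at 25° C in 20 mM Tris-HCl pH 7.5, 5 mM MgCl2, 50 mM NaCl, holding genotype 1a NS5B (1.5 μg/ml, Δ47 C-terminus, 6His), substrate RNA 5 μg/ml, UTP 2 μM with tritiated UTP and other NTPs 50 μM. IC50 derived from incorporated radiolabel in filter-trapped RNA relative to uninhibited reaction.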

As for `CC(C)(O)C#Cc1ncc2sc(N3CCN(S(=O)(=O)c4ccc(OC(F)(F)F)cc4)[C@@H](C(=O)NCc4ccc(OC(F)(F)F)cc4)C3)nc2n1` [Example 994, (R)-4-[5-(3-hydroxy-3-methyl-but-1-ynyl)-thiazolo[4,5-d]pyrimidin-2-yl]-1-(4-trifluoromethoxy-benzenesulfonyl)-piperazine-2-carboxylic acid 4-trifluoromethoxy-benzylamide], the IC50 in assay [1] and in assay [2] was below 100 nM throughout.
`C#Cc1ncc2sc(N3CCN(S(=O)(=O)c4ccc(OC(F)(F)F)cc4)[C@@H](C(=O)NCc4ccc(OC(F)(F)F)cc4)C3)nc2n1` [Example 995, (R)-4-(5-ethynyl-thiazolo[4,5-d]pyrimidin-2-yl)-1-(4-trifluoromethoxy-benzenesulfonyl)-piperazine-2-carboxylic acid 4-trifluoromethoxy-benzylamide]: the IC50 in assay [1] and in assay [2] was below 100 nM each time.
Consider `O=C(NCc1ccc(S(F)(F)(F)(F)F)cc1)[C@H]1CN(c2nc3ncncc3s2)CCN1S(=O)(=O)c1ccc(OC(F)(F)F)cc1` [Example 996, (R)-4-thiazolo[4,5-d]pyrimidin-2-yl-1-(4-trifluoromethoxy-benzenesulfonyl)-piperazine-2-carboxylic acid 4-pentafluorosulfanyl-benzylamide], for which the IC50 in assay [1] and in assay [2] was below 100 nM each time.
Regarding `O=C(NCc1ccc(OC(F)F)cc1F)[C@H]1CN(c2nc3nc(Cl)ncc3s2)CCN1S(=O)(=O)c1ccc(OC(F)(F)F)cc1` [Example 997, (R)-4-(5-chloro-thiazolo[4,5-d]pyrimidin-2-yl)-1-(4-trifluoromethoxy-benzenesulfonyl)-piperazine-2-carboxylic acid 4-difluoromethoxy-2-fluoro-benzylamide], the 50% inhibitory concentration (IC50) in assay [1] and in assay [2] was below 100 nM each time.
Take `O=C(NCc1ccc(OC(F)F)cc1F)[C@H]1CN(c2nc3ncncc3s2)CCN1S(=O)(=O)c1ccc(OC(F)(F)F)cc1` [Example 998, (R)-4-thiazolo[4,5-d]pyrimidin-2-yl-1-(4-trifluoromethoxy-benzenesulfonyl)-piperazine-2-carboxylic acid 4-difluoromethoxy-2-fluoro-benzylamide]: the IC50 in assay [1] and in assay [2] was below 100 nM throughout.
On to `O=C(NCc1ccc(OC(F)(F)F)cc1)[C@H]1CN(c2nc3nc(C(F)(F)F)ncc3s2)CCN1S(=O)(=O)c1ccc(OC(F)F)cc1` [Example 999, (R)-1-(4-difluoromethoxy-benzenesulfonyl)-4-(5-trifluoromethyl-thiazolo[4,5-d]pyrimidin-2-yl)-piperazine-2-carboxylic acid 4-trifluoromethoxy-benzylamide], for which the IC50 in assay [1] and in assay [2] was below 100 nM each time.
Consider `O=C(NCc1ccc(OC(F)F)cc1)[C@H]1CN(c2nc3nc(C(F)(F)F)ncc3s2)CCN1S(=O)(=O)c1ccc(OC(F)(F)F)cc1` [Example 1000, (R)-1-(4-trifluoromethoxy-benzenesulfonyl)-4-(5-trifluoromethyl-thiazolo[4,5-d]pyrimidin-2-yl)-piperazine-2-carboxylic acid 4-difluoromethoxy-benzylamide], for which the concentration for half-maximal inhibition (IC50) in assay [1] and in assay [2] was below 100 nM throughout.
`O=C(NCc1ccc(OC(F)F)cc1)[C@H]1CN(c2nc3nc(C(F)(F)F)ncc3s2)CCN1S(=O)(=O)c1ccc(C(F)(F)F)cc1` [Example 1001, (R)-1-(4-trifluoromethyl-benzenesulfonyl)-4-(5-trifluoromethyl-thiazolo[4,5-d]pyrimidin-2-yl)-piperazine-2-carboxylic acid 4-difluoromethoxy-benzylamide]: the concentration for half-maximal inhibition (IC50) in assay [1] and in assay [2] was below 100 nM in each case.
`O=C(NCc1ccc(OC(F)(F)F)cc1)[C@H]1CN(c2nc3nnnc(NCCO)c3s2)CCN1S(=O)(=O)c1ccc(OC(F)(F)F)cc1` [Example 1002, (R)-4-[4-(2-hydroxy-ethylamino)-thiazolo[4,5-d][1,2,3]triazin-6-yl]-1-(4-trifluoromethoxy-benzenesulfonyl)-piperazine-2-carboxylic acid 4-trifluoromethoxy-benzylamide]: the IC50 in assay [1] and in assay [2] was below 100 nM each time.
With `O=C(NCc1ccc(OC(F)(F)F)cc1)[C@H]1CN(c2nc3nc(C(F)(F)F)[nH]c(=O)c3s2)CCN1S(=O)(=O)c1ccc(OC(F)(F)F)cc1` [Example 1003, (R)-4-(7-oxo-5-trifluoromethyl-6,7-dihydro-thiazolo[4,5-d]pyrimidin-2-yl)-1-(4-trifluoromethoxy-benzenesulfonyl)-piperazine-2-carboxylic acid 4-trifluoromethoxy-benzylamide], the IC50 in assay [1] and in assay [2] was below 100 nM in each case.
With `O=C(NCc1ccc(OC(F)(F)F)cc1)[C@H]1CN(c2nc3nc(C(F)(F)F)ncc3s2)CCN1S(=O)(=O)c1ccc(OC(F)(F)C(F)F)cc1` [Example 1004, (R)-1-[4-(1,1,2,2-tetrafluoro-ethoxy)-benzenesulfonyl]-4-(5-trifluoromethyl-thiazolo[4,5-d]pyrimidin-2-yl)-piperazine-2-carboxylic acid 4-trifluoromethoxy-benzylamide], the half-inhibitory concentration (IC50) in assay [1] and in assay [2] was below 100 nM in each case.
For the compound `O=C(NCc1ccc(OC(F)F)cc1)[C@H]1CN(c2nc3nc(C(F)(F)F)ncc3s2)CCN1S(=O)(=O)c1ccc(OC(F)F)cc1` [Example 1005, (R)-1-(4-difluoromethoxy-benzenesulfonyl)-4-(5-trifluoromethyl-thiazolo[4,5-d]pyrimidin-2-yl)-piperazine-2-carboxylic acid 4-difluoromethoxy-benzylamide], the IC50 in assay [1] and in assay [2] was below 100 nM each time.
Turning to `O=C(NCc1ccc(OC(F)(F)F)cc1)[C@H]1CN(c2nc3nnncc3s2)CCN1S(=O)(=O)c1ccc(C(F)(F)F)cc1` [Example 1006, (R)-4-thiazolo[4,5-d][1,2,3]triazin-6-yl-1-(4-trifluoromethyl-benzenesulfonyl)-piperazine-2-carboxylic acid 4-trifluoromethoxy-benzylamide], the half-maximal inhibitory concentration (IC50) in assay [1] and in assay [2] was below 100 nM each time.
On to `CCOC(=O)c1ncc2sc(N3CCN(S(=O)(=O)c4ccc(OC(F)(F)F)cc4)[C@@H](C(=O)NCc4ccc(OC(F)(F)F)cc4)C3)nc2n1` [Example 1007, 2-[(R)-4-(4-trifluoromethoxy-benzenesulfonyl)-3-(4-trifluoromethoxy-benzylcarbamoyl)-piperazin-1-yl]-thiazolo[4,5-d]pyrimidine-5-carboxylic acid ethyl ester], for which the IC50 in assay [1] and in assay [2] was below 100 nM each time.
Turning to `O=C(NCc1ccc(OC(F)(F)F)cc1)[C@H]1CN(c2nc3nc(CO)ncc3s2)CCN1S(=O)(=O)c1ccc(OC(F)(F)F)cc1` [Example 1008, (R)-4-(5-hydroxymethyl-thiazolo[4,5-d]pyrimidin-2-yl)-1-(4-trifluoromethoxy-benzenesulfonyl)-piperazine-2-carboxylic acid 4-trifluoromethoxy-benzylamide], the IC50 in assay [1] and in assay [2] was below 100 nM each time.
Consider `COc1nncc2sc(N3CCN(S(=O)(=O)c4ccc(OC(F)(F)F)cc4)[C@@H](C(=O)NCc4ccc(OC(F)(F)F)cc4)C3)nc12` [Example 1009, (R)-4-(4-methoxy-thiazolo[4,5-d]pyridazin-2-yl)-1-(4-trifluoromethoxy-benzenesulfonyl)-piperazine-2-carboxylic acid 4-trifluoromethoxy-benzylamide], for which the IC50 in assay [1] and in assay [2] was below 100 nM each time.
With `N#Cc1ncc2sc(N3CCN(S(=O)(=O)c4ccc(C(F)(F)F)cc4)[C@@H](C(=O)NCc4ccc(OC(F)(F)F)cc4)C3)nc2n1` [Example 1010, (R)-4-(5-cyano-thiazolo[4,5-d]pyrimidin-2-yl)-1-(4-trifluoromethyl-benzenesulfonyl)-piperazine-2-carboxylic acid 4-trifluoromethoxy-benzylamide], the IC50 in assay [1] and in assay [2] was below 100 nM in each case.
Take `N#Cc1ncc2sc(N3CCN(S(=O)(=O)c4ccc(C(F)(F)F)cc4)[C@@H](C(=O)NCc4ccc(OC(F)F)cc4)C3)nc2n1` [Example 1011, (R)-4-(5-cyano-thiazolo[4,5-d]pyrimidin-2-yl)-1-(4-trifluoromethyl-benzenesulfonyl)-piperazine-2-carboxylic acid 4-difluoromethoxy-benzylamide]: the IC50 in assay [1] and in assay [2] was below 100 nM in each case.
As for `O=C(NCc1ccc(OC(F)(F)F)cc1)[C@H]1CN(c2nc3nc(CC4CC4)ncc3s2)CCN1S(=O)(=O)c1ccc(C(F)(F)F)cc1` [Example 1012, (R)-4-(5-cyclopropylmethyl-thiazolo[4,5-d]pyrimidin-2-yl)-1-(4-trifluoromethyl-benzenesulfonyl)-piperazine-2-carboxylic acid 4-trifluoromethoxy-benzylamide], the IC50 in assay [1] and in assay [2] was below 100 nM each time.
For the compound `NC(=O)c1ncc2sc(N3CCN(S(=O)(=O)c4ccc(C(F)(F)F)cc4)[C@@H](C(=O)NCc4ccc(OC(F)(F)F)cc4)C3)nc2n1` [Example 1013, 2-[(R)-3-(4-trifluoromethoxy-benzylcarbamoyl)-4-(4-trifluoromethyl-benzenesulfonyl)-piperazin-1-yl]-thiazolo[4,5-d]pyrimidine-5-carboxylic acid amide], the IC50 in assay [1] and in assay [2] was below 100 nM throughout.
